Laboratory results as given in patent US20230310424A1, “METHODS AND MATERIALS FOR INCREASING NICOTINAMIDE PHOSPHORIBOSYL TRANSFERASE ACTIVITY” (University of Pittsburgh - Of the Commonwealth System of …, priority 2020, published 2023).

System: NAD^+ levels in cells
Experiment: Assay for Total NADH and NAD+ Measurements in Cells
Format: cell-based
Conditions: cells incubated overnight with test compound; 100 percent = no change vs untreated control cells; cell type and concentration not given
Procedure: 2,000 cells/well and, at the same time, test compounds dissolved in media at the desired concentration were added to each well. The treated cells were incubated overnight in CO2 incubator. The cells were washed 6 times with PBS with 1 mM CaCl2 and 1 mM MgCl2. In the last wash, 10 μL of PBS with 1 mM CaCl2 and 1 mM MgCl2 per well were left in each well. Immediately thereafter, 10 μL 0.4% dodecyltrimethyl-ammonium bromide (DTAB) in phosphate buffer pH 8.0 as added, and the plates were shaked at 1000 rpm for 5 minutes. 60 μL reaction mix was added, and fluorescence at Ex/Em 530/585 was immediately monitored. A linear increase should be achieved with 8 cycles every 92 seconds, 10 number of flashes/well/cycle. The reaction mix was prepared per the following table, respecting the amount and order in which each component was added:
A percentage of 100 percent would indicate no increase or decrease in NAD^+ levels as compared to that measured for untreated control cells, while a percentage of 125 percent would indicate an increase in NAD^+ levels of 25 percent as compared to that measured for untreated control cells.

**Q.** For `CS(=O)(=O)c1ccc(-c2nc3ccc(-c4ncco4)cc3nc2-c2ccc(F)cc2)s1` [BC19248], which “A: increase in NAD^+ levels in cells in response to the test compound, as the percent of NAD^+ levels compared to that in the absence of the test compound” value is on record?
**A.** 125%

**Q.** For `Cc1cnc(-c2ccc3nc(-c4ccc(F)cc4)c(-c4cccs4)nc3c2)o1` [BC19249], which “A: increase in NAD^+ levels in cells in response to the test compound, as the percent of NAD^+ levels compared to that in the absence of the test compound” value is on record?
**A.** 119%

**Q.** How did the “A: increase in NAD^+ levels in cells in response to the test compound, as the percent of NAD^+ levels compared to that in the absence of the test compound” value turn out when `COCCNC(=O)c1cnc2nc(-c3ccc(F)cc3)c(-c3ccc(F)cc3)nc2c1` [BC20200] was run?
**A.** 132%

**Q.** `O=C(O)c1ccc2nc(-c3ccc(F)cc3)c(-c3cccs3)nc2c1` [BC19156] was tested. Which “A: increase in NAD^+ levels in cells in response to the test compound, as the percent of NAD^+ levels compared to that in the absence of the test compound” value did it give?
**A.** 105%

**Q.** Which “A: increase in NAD^+ levels in cells in response to the test compound, as the percent of NAD^+ levels compared to that in the absence of the test compound” value does the source give for `CN1CCN(C(=O)c2ccc3nc(C(F)(F)F)c(-c4cccnc4)nc3c2)CC1` [BC19105] here?
**A.** 105%

**Q.** How did the “A: increase in NAD^+ levels in cells in response to the test compound, as the percent of NAD^+ levels compared to that in the absence of the test compound” value turn out when `CN1CCN(C(=O)c2ccc3nc(-c4ccc(C#N)cc4)c(-c4ccc(C#N)cc4)nc3c2)CC1` [BC19446] was run?
**A.** 106%

**Q.** How did the “A: increase in NAD^+ levels in cells in response to the test compound, as the percent of NAD^+ levels compared to that in the absence of the test compound” value turn out when `Fc1ccc(-c2nc3ccc(-c4ncco4)cc3nc2-c2ccc(F)cc2)cc1` [BC19145] was run?
**A.** 106%

**Q.** With `Cc1noc(-c2ccc3nc(-c4ccc(F)cc4)c(-c4ccc(F)cc4)nc3c2)n1` [BC19193] as the compound, how does the “A: increase in NAD^+ levels in cells in response to the test compound, as the percent of NAD^+ levels compared to that in the absence of the test compound” value read?
**A.** 109%

**Q.** With `NC(=O)c1ccc2nc(-c3ccc(F)cc3)c(-c3cccs3)nc2c1` [BC19187] as the compound, how does the “A: increase in NAD^+ levels in cells in response to the test compound, as the percent of NAD^+ levels compared to that in the absence of the test compound” value read?
**A.** 113%

**Q.** How did the “A: increase in NAD^+ levels in cells in response to the test compound, as the percent of NAD^+ levels compared to that in the absence of the test compound” value turn out when `CNC(=O)c1ccc2nc(-c3cccs3)c(-c3ccc(F)cc3)nc2c1` [BC19119] was run?
**A.** 112%

**Q.** Which “A: increase in NAD^+ levels in cells in response to the test compound, as the percent of NAD^+ levels compared to that in the absence of the test compound” value does the source give for `C#CCNC(=O)c1ccc2nc(-c3cccc(N(C)C)c3)c(-c3cccc(N(C)C)c3)nc2c1` [BC19499] here?
**A.** 165%

**Q.** How did the “A: increase in NAD^+ levels in cells in response to the test compound, as the percent of NAD^+ levels compared to that in the absence of the test compound” value turn out when `C#CCNC(=O)c1ccc2nc(-c3ccc(F)cc3)c(-c3cccs3)nc2c1` [BC19189] was run?
**A.** 109%

**Q.** How did the “A: increase in NAD^+ levels in cells in response to the test compound, as the percent of NAD^+ levels compared to that in the absence of the test compound” value turn out when `CN(C)c1cccc(-c2nc3ccc(C(=O)O)cc3nc2-c2cccc(N(C)C)c2)c1` [BC19500] was run?
**A.** 107%

**Q.** `Fc1ccc(-c2nc3cc(-c4nnn[nH]4)ccc3nc2-c2cccs2)cc1` [BC19186] was tested. Which “A: increase in NAD^+ levels in cells in response to the test compound, as the percent of NAD^+ levels compared to that in the absence of the test compound” value did it give?
**A.** 105%

**Q.** Which “A: increase in NAD^+ levels in cells in response to the test compound, as the percent of NAD^+ levels compared to that in the absence of the test compound” value does the source give for `Fc1ccc(-c2nc3cc(-c4nnn[nH]4)ccc3nc2C(F)(F)F)cc1` [BC19113] here?
**A.** 110%

**Q.** `CN1CCN(C(=O)c2ccc3nc(-c4cccs4)c(-c4ccc(F)cc4)nc3c2)CC1` [BC19109] was tested. Which “A: increase in NAD^+ levels in cells in response to the test compound, as the percent of NAD^+ levels compared to that in the absence of the test compound” value did it give?
**A.** 111%

**Q.** With `Fc1ccc(-c2nc3ccc(-c4nnn[nH]4)cc3nc2-c2ccc(F)cc2)cc1` [BC19144] as the compound, how does the “A: increase in NAD^+ levels in cells in response to the test compound, as the percent of NAD^+ levels compared to that in the absence of the test compound” value read?
**A.** 107%

**Q.** Which “A: increase in NAD^+ levels in cells in response to the test compound, as the percent of NAD^+ levels compared to that in the absence of the test compound” value does the source give for `NC(=O)c1ccc2nc(-c3ccc(F)cc3)c(C(F)(F)F)nc2c1` [BC19117] here?
**A.** 116%

**Q.** Which “A: increase in NAD^+ levels in cells in response to the test compound, as the percent of NAD^+ levels compared to that in the absence of the test compound” value does the source give for `CN1CCN(C(=O)c2ccc3nc(-c4ccc(F)cc4)c(C(F)(F)F)nc3c2)CC1` [BC19110] here?
**A.** 105%

**Q.** Which “A: increase in NAD^+ levels in cells in response to the test compound, as the percent of NAD^+ levels compared to that in the absence of the test compound” value does the source give for `CN(C)c1cccc(-c2nc3ccc(C(=O)NCCO)cc3nc2-c2cccc(N(C)C)c2)c1` [BC19502] here?
**A.** 115%

**Q.** With `CN(C)CCNC(=O)c1cnc2nc(-c3ccc(F)cc3)c(-c3ccc(F)cc3)nc2c1` [BC20201] as the compound, how does the “A: increase in NAD^+ levels in cells in response to the test compound, as the percent of NAD^+ levels compared to that in the absence of the test compound” value read?
**A.** 133%

**Q.** `C#CCNC(=O)c1cnc2nc(-c3ccc(F)cc3)c(-c3ccc(F)cc3)nc2c1` [BC20257] was tested. Which “A: increase in NAD^+ levels in cells in response to the test compound, as the percent of NAD^+ levels compared to that in the absence of the test compound” value did it give?
**A.** 130%

**Q.** Which “A: increase in NAD^+ levels in cells in response to the test compound, as the percent of NAD^+ levels compared to that in the absence of the test compound” value does the source give for `O=C(O)c1ccc2nc(-c3ccc(F)cc3)c(-c3ccc(F)cc3)nc2c1` [BC19118] here?
**A.** 108%

**Q.** Which “A: increase in NAD^+ levels in cells in response to the test compound, as the percent of NAD^+ levels compared to that in the absence of the test compound” value does the source give for `CN1CCN(C(=O)c2ccc3nc(C(F)(F)F)c(-c4ccncc4)nc3c2)CC1` [BC19149] here?
**A.** 106%

**Q.** With `C#CCNC(=O)c1ccc2nc(-c3cccc(NC(=O)CN(C)C)c3)c(-c3cccc(NC(=O)CN(C)C)c3)nc2c1` [BC20287] as the compound, how does the “A: increase in NAD^+ levels in cells in response to the test compound, as the percent of NAD^+ levels compared to that in the absence of the test compound” value read?
**A.** 120%

**Q.** For `Cn1cnnc1-c1ccc2nc(-c3ccc(F)cc3F)c(-c3ccccc3)nc2c1` [BC19444], which “A: increase in NAD^+ levels in cells in response to the test compound, as the percent of NAD^+ levels compared to that in the absence of the test compound” value is on record?
**A.** 112%
